Assay results reported in patent US9637473B2, “Acrylamide derivatives as antimalarial agents” (priority 2013, dated 2017).
Where a name gives a salt, the structure may show the parent alone.

system: P. Falciparum NF54; assay: Plasmodium falciparum in vitro assay ([3H]-hypoxanthine incorporation); type: cell-based; conditions: Plasmodium falciparum, Erythrocyte, P. Falciparum NF54, erythrocytic stages in human red blood cells, 50% human serum
Procedure: In Vitro Antimalarial Activity: Plasmodium falciparum In Vitro Assay: In vitro activity against erythrocytic stages of P. Falciparum in human red blood cells is determined using a [^3H]-hypoxanthine incorporation assay. One strain sensitive to all drugs (P. […] After 48 hours, [^3H]-hypoxanthine (0.5 μCi) is added to each well of a plate. The plates are incubated for a further 24 hours under the same conditions then harvested with a Betaplate cell harvester (Wallac) and washed with distilled water. The dried filters are inserted into a plastic foil with 10 mL of scintillation fluid and counted in a Betaplate liquid scintillation counter. IC50 values are calculated from sigmoidal inhibition curves using Microsoft Excel.

First: CC(C)Oc1ccc(/C=C/C(=O)N(Cc2ccc(N(C)c3ccncc3)cc2)C2CCN(Cc3ccccc3)CC2)cc1 [Example 143, (E)-N-(1-Benzyl-piperidin-4-yl)-3-(4-isopropoxy-phenyl)-N-[4-(methyl-pyridin-4-yl-amino)-benzyl]-acrylamide]
Second: COc1ccc(/C=C/C(=O)N(Cc2ccc(N(C)c3ccncc3)cc2)C2CCN(Cc3ccccc3)CC2)cc1 [Example 149, (E)-N-(1-Benzyl-piperidin-4-yl)-3-(4-methoxy-phenyl)-N-[4-(methyl-pyridin-4-yl-amino)-benzyl]-acrylamide]
The IC50 of the first is 1.8-fold lower: 102 nM for the first, 181 nM for the second.

Going from `CN(c1ccncc1)c1ccc(CN(C(=O)/C=C/c2ccc(C(F)(F)F)nc2)C2CCN(Cc3ccccc3)CC2)cc1` [Example 161, (E)-N-(1-Benzyl-piperidin-4-yl)-N-[4-(methyl-pyridin-4-yl-amino)-benzyl]-3-(6-trifluoromethyl-pyridin-3-yl)-acrylamide] to `Cc1cccc(/C=C/C(=O)N(Cc2ccc(N(C)c3ccncc3)cc2)C2CCN(Cc3ccccc3)CC2)c1` [Example 159, (E)-N-(1-Benzyl-piperidin-4-yl)-N-[4-(methyl-pyridin-4-yl-amino)-benzyl]-3-m-tolyl-acrylamide], the IC50 rises from 58 nM to 195 nM (3.4-fold).

First: Cc1cc(Nc2ccc(CN(C(=O)/C=C/c3ccc(C(F)(F)F)cc3)C3CCN(Cc4ccccc4)CC3)cc2)ccn1 [Example 37, (E)-N-(1-Benzyl-piperidin-4-yl)-N-[4-(2-methyl-pyridin-4-ylamino)-benzyl]-3-(4-trifluoromethyl-phenyl)-acrylamide]
Second: Cc1cc(Nc2ccc(CN(C(=O)/C=C/c3ccc(C(F)(F)F)cc3)C3CCN(Cc4cnc(C)n4C)CC3)cc2)ccn1 [Example 52, (E)-N-[1-(2,3-Dimethyl-3H-imidazol-4-ylmethyl)-piperidin-4-yl]-N-[4-(2-methyl-pyridin-4-ylamino)-benzyl]-3-(4-trifluoromethyl-phenyl)-acrylamide]
The IC50 of the first is 2.8-fold lower: 51 nM for the first, 143 nM for the second.

First: Cc1nc(CN2CCC(N(Cc3ccc(N(C)c4ccncc4)cc3)C(=O)/C=C/c3ccc(C(F)(F)F)cc3)CC2)co1 [Example 4, (E)-N-[1-(2-Methyl-oxazol-4-ylmethyl)-piperidin-4-yl]-N-[4-(methyl-pyridin-4-yl-amino)-benzyl]-3-(4-trifluoromethyl-phenyl)-acrylamide]
Second: Cc1ncc(CN2CCC(N(Cc3ccc(N(C)c4ccncc4)cc3)C(=O)/C=C/c3ccc(C(F)(F)F)cc3)CC2)cn1 [Example 24, (E)-N-[4-(Methyl-pyridin-4-yl-amino)-benzyl]-N-[1-(2-methyl-pyrimidin-5-ylmethyl)-piperidin-4-yl]-3-(4-trifluoromethyl-phenyl)-acrylamide]
The IC50 of the first is 2.5-fold lower: 133 nM for the first, 328 nM for the second.

Compared with `CN(c1ccncc1)c1ccc(CN(C(=O)/C=C/c2ccc(C(F)(F)F)cc2)[C@H]2CC[C@@H](N3CCCC3)CC2)cc1` [Example 192, (±)-cis-(E)-N-[4-(Methyl-pyridin-4-yl-amino)-benzyl]-N-(4-pyrrolidin-1-yl-cyclohexyl)-3-(4-trifluoromethyl-phenyl)-acrylamide], `CN(c1ccncc1)c1ccc(CN(C(=O)/C=C/c2ccc(C(F)(F)F)cc2)C2CCCCN(C3CCCC3)C2)cc1` (racemic) [Example 71, (±)-(E)-N-(1-cyclopentylazepan-3-yl)-N-(4-(methyl(pyridin-4-yl)amino)benzyl)-3-(4-(trifluoromethyl)phenyl)acrylamide] is 6.7-fold higher in IC50: 25 nM for the first, 167 nM for the second. The first is the more potent here.

First: CN1CCC(N2CCC(N(Cc3ccc(N(C)c4ccncc4)cc3)C(=O)/C=C/c3ccc(OC(F)F)cc3)CC2)CC1 [Example 181, (E)-3-(4-Difluoromethoxy-phenyl)-N-(1′-methyl-[1,4′]bipiperidinyl-4-yl)-N-[4-(methyl-pyridin-4-yl-amino)-benzyl]-acrylamide]
Second: CN1CCC(N2CCCCC(N(Cc3ccc(N(C)c4ccncc4)cc3)C(=O)/C=C/c3ccc(C(F)(F)F)cc3)C2)CC1 (racemic) [Example 70, (±)-(E)-N-(4-(methyl(pyridin-4-yl)amino)benzyl)-N-(1-(1-methylpiperidin-4-yl)azepan-3-yl)-3-(4-(trifluoromethyl)phenyl)acrylamide]
The IC50 of the first is 1.8-fold higher: 36 nM for the first, 20 nM for the second.

Going from `COc1ccc(CN2CCC(N(Cc3ccc(N(C)c4ccncc4)cc3)C(=O)/C=C/c3ccc(C(F)(F)F)cc3)CC2)cc1` [Example 13, (E)-N-[1-(4-Methoxy-benzyl)-piperidin-4-yl]-N-[4-(methyl-pyridin-4-yl-amino)-benzyl]-3-(4-trifluoromethyl-phenyl)-acrylamide] to `CN(c1ccncc1)c1ccc(CN(C(=O)/C=C/c2ccc(C(F)(F)F)cc2)C2CCN(Cc3ncc4ccccn34)CC2)cc1` [Example 20, (E)-N-(1-Imidazo[1,5-a]pyridin-3-ylmethyl-piperidin-4-yl)-N-[4-(methyl-pyridin-4-yl-amino)-benzyl]-3-(4-trifluoromethyl-phenyl)-acrylamide], the IC50 rises from 50 nM to 256 nM (5.1-fold). The first is the more potent here.

First: Cc1cc(Nc2ccc(CN(C(=O)/C=C/c3ccc(C(F)(F)F)cc3)C3CCN(C4CCN(C)CC4)CC3)cn2)ccn1 [Example 111, (E)-N-(1′-Methyl-[1,4′]bipiperidinyl-4-yl)-N-[6-(2-methyl-pyridin-4-ylamino)-pyridin-3-ylmethyl]-3-(4-trifluoromethyl-phenyl)-acrylamide]
Second: Cc1cc(Nc2ccc(CN(C(=O)/C=C/c3ccc(OC(F)(F)F)cc3)C3CCN(C4CCN(C)CC4)CC3)cc2)ccn1 [Example 119, (E)-N-(1′-Methyl-[1,4′]bipiperidinyl-4-yl)-N-[4-(2-methyl-pyridin-4-ylamino)-benzyl]-3-(4-trifluoromethoxy-phenyl)-acrylamide]
The IC50 of the first is 3.6-fold higher: 165 nM for the first, 46 nM for the second. The second is the more potent here.

`O=C(/C=C/c1ccc(C(F)(F)F)cc1)N(Cc1ccc(Nc2ccncn2)nc1)C1CCN(C2CCCC2)CC1` [Example 107, (E)-N-(1-Cyclopentyl-piperidin-4-yl)-N-[6-(pyrimidin-4-ylamino)-pyridin-3-ylmethyl]-3-(4-trifluoromethyl-phenyl)-acrylamide] and `Cn1ccc(-c2ccc(CN(C(=O)/C=C/c3ccc(C(F)(F)F)cc3)C3CCN(C4CCCC4)CC3)cc2)n1` [Example 202, (E)-N-(1-Cyclopentyl-piperidin-4-yl)-N-[4-(1-methyl-1H-pyrazol-3-yl)-benzyl]-3-(4-trifluoromethyl-phenyl)-acrylamide] are within 1.5-fold of each other in IC50: 420 nM for the first, 434 nM for the second.

`CCN(CC)Cc1cc(Nc2ccc(CN(C(=O)/C=C/c3ccc(C(F)(F)F)cc3)C3CCN(C)CC3)cc2)ccc1O` [Example 185, (E)-N-[4-(3-Diethylaminomethyl-4-hydroxy-phenylamino)-benzyl]-N-(1-methyl-piperidin-4-yl)-3-(4-trifluoromethyl-phenyl)-acrylamide] and `Cc1cc(Nc2ccc(CN(C(=O)/C=C/c3ccc(C(F)(F)F)cc3)C3CCN(C4CCCC4)CC3)cc2)cc(C)n1` [Example 87, (E)-N-(1-Cyclopentyl-piperidin-4-yl)-N-[4-(2,6-dimethyl-pyridin-4-ylamino)-benzyl]-3-(4-trifluoromethyl-phenyl)-acrylamide] are within 1.5-fold of each other in IC50: 39 nM for the first, 28 nM for the second.

`CN(c1ccncc1)c1ccc(CN(C(=O)/C=C/c2ccc(C(F)(F)F)cc2)C2CCC3(CC2)CCN(C2CCCC2)CC3)cc1` [Example 67, (E)-N-(3-cyclopentyl-3-azaspiro[5.5]undecan-9-yl)-N-(4-(methyl(pyridin-4-yl)amino)benzyl)-3-(4-(trifluoromethyl)phenyl)acrylamide] and `CN(c1ccncc1)c1ccc(CN(CC2CCN(C3CCCC3)CC2)C(=O)/C=C/c2ccc(C(F)(F)F)cc2)cc1` [Example 188, (E)-N-(1-Cyclopentyl-piperidin-4-ylmethyl)-N-[4-(methyl-pyridin-4-yl-amino)-benzyl]-3-(4-trifluoromethyl-phenyl)-acrylamide] are the same in IC50: 40 nM for the first, 40 nM for the second.

Compared with `Cc1cc(N(C)c2cccc(CN(C(=O)/C=C/c3ccc(C(F)(F)F)cc3)C3CCN(C(C)C)CC3)n2)ccn1` [Example 128, (E)-N-(1-Isopropyl-piperidin-4-yl)-N-{6-[methyl-(2-methyl-pyridin-4-yl)-amino]-pyridin-2-ylmethyl}-3-(4-trifluoromethyl-phenyl)-acrylamide formate], `Cc1cnccc1Nc1cncc(CN(C(=O)/C=C/c2ccc(C(F)(F)F)cc2)C2CCN(C(C)C)CC2)c1` [Example 137, (E)-N-(1-Isopropyl-piperidin-4-yl)-N-[5-(3-methyl-pyridin-4-ylamino)-pyridin-3-ylmethyl]-3-(4-trifluoromethyl-phenyl)-acrylamide formate] is 6.4-fold lower in IC50: 302 nM for the first, 47 nM for the second. The second is the more potent here.

Compared with `CN(c1ccncc1)c1ccc(CN(C(=O)/C=C/c2ccc(C(F)(F)F)cc2)[C@H]2CCN(C3CCCC3)C[C@H]2F)cc1` (racemic) [Example 76, (±)-(E)-N-(cis-1-cyclopentyl-3-fluoropiperidin-4-yl)-N-(4-(methyl(pyridin-4-yl)amino)benzyl)-3-(4-(trifluoromethyl)phenyl)acrylamide], `CN(C)CCCOc1ccc(CN(C(=O)/C=C/c2ccc(C(F)(F)F)cc2)C2CCN(C3CCCC3)CC2)cc1` [Example 205, (E)-N-(1-Cyclopentyl-piperidin-4-yl)-N-[4-(3-dimethylamino-propoxy)-benzyl]-3-(4-trifluoromethyl-phenyl)-acrylamide] is 1.6-fold higher in IC50: 50 nM for the first, 82 nM for the second. The first is the more potent here.

`Cc1cc(Nc2ccc(CN(CC3CCN(C4CCN(C)CC4)CC3)C(=O)/C=C/c3ccc(C(F)(F)F)cc3)cc2)ccn1` [Example 172, (E)-N-(1′-Methyl-[1,4′]bipiperidinyl-4-ylmethyl)-N-[4-(2-methyl-pyridin-4-ylamino)-benzyl]-3-(4-trifluoromethyl-phenyl)-acrylamide] and `O=C(/C=C/c1ccc(C(F)(F)F)cc1)N(Cc1ccc(Nc2ccnc3cc(Cl)ccc23)cc1)C1CCN(C2CCCC2)CC1` [Example 97, (E)-N-[4-(7-Chloro-quinolin-4-ylamino)-benzyl]-N-(1-cyclopentyl-piperidin-4-yl)-3-(4-trifluoromethyl-phenyl)-acrylamide] are within 1.5-fold of each other in IC50: 178 nM for the first, 120 nM for the second.
